Reference: patent US12458021B2, “Microbiocidal derivatives” (SYNGENTA CROP PROTECTION AG, priority 2019, dated 2025)

These compounds were tested on Glomerella lagenarium (Colletotrichum lagenarium) (assay: Glomerella lagenarium (Colletotrichum lagenarium) / liquid culture (anthracnose)). Conditions: Colletotrichum orbiculare, PDB potato dextrose broth, 24° C., 3-4 days after application, read-out: control of Glomerella lagenarium (inhibition of growth, photometric).
Type: cell-based
Protocol: Example B3: Glomerella lagenarium (Colletotrichum lagenarium)/Liquid Culture (Anthracnose) Conidia of the fungus from cryogenic storage are directly mixed into nutrient broth (PDB potato dextrose broth). After placing a (DMSO) solution of test compound into a microtiter plate (96-well format), the nutrient broth containing the fungal spores is added. The test plates are incubated at 24° C. and the inhibition of growth is measured photometrically 3-4 days after application. […] […]-191.

**Q.** Which inhibition at 20 ppm does the source give for `COCC(=O)Oc1ccc(N(C(=O)COC)c2cc(F)cc(F)c2)nc1C(=O)NC1CCC1(C)C` (centres unmarked) [Compound P-24, [6-(3,5-difluoro-N-(2-methoxyacetyl)anilino)-2-[(2,2-dimethylcyclobutyl)carbamoyl]-3-pyridyl] 2-methoxyacetate] here?
**A.** Its inhibition at 20 ppm is at least 80%.

**Q.** For `COc1ccc(Nc2cc(F)cc(F)c2)nc1C(=O)NCC1(c2ccc(C(F)(F)F)cn2)CC1` [Compound P-72, 6-(3,5-difluoroanilino)-3-methoxy-N-[[1-[5-(trifluoromethyl)-2-pyridyl]cyclopropyl]methyl]pyridine-2-carboxamide], which inhibition at 20 ppm is on record?
**A.** Its inhibition at 20 ppm is at least 80%.

**Q.** `COc1ccc(Nc2cc(F)cc(F)c2)nc1C(=O)NC1CCN(S(=O)(=O)C(C)C)CC1` [Compound P-77, 6-(3,5-difluoroanilino)-N-(1-isopropylsulfonyl-4-piperidyl)-3-methoxy-pyridine-2-carboxamide] was tested. Which inhibition at 20 ppm did it give?
**A.** Its inhibition at 20 ppm is at least 80%.

**Q.** For `COc1ccc(Nc2cnsc2)nc1C(=O)NCC1(C)CCOC2(CCC2)C1` (centres unmarked) [Compound P-84, 6-(isothiazol-4-ylamino)-3-methoxy-N-[(8-methyl-5-oxaspiro[3.5]nonan-8-yl)methyl]pyridine-2-carboxamide], which inhibition at 20 ppm is on record?
**A.** Its inhibition at 20 ppm is at least 80%.

**Q.** With `COc1ccc(Nc2cnsc2)nc1C(=O)NCCc1ccc(OC(F)(F)F)cc1` [Compound P-85, 6-(isothiazol-4-ylamino)-3-methoxy-N-[2-[4-(trifluoromethoxy)phenyl]ethyl]pyridine-2-carboxamide] as the compound, how does the inhibition at 20 ppm read?
**A.** Its inhibition at 20 ppm is at least 80%.

**Q.** With `CC(C)(C)CNC(=O)c1nc(Nc2cc(F)nc(F)c2)ccc1O` [Compound P-100, 6-[(2,6-difluoro-4-pyridyl)amino]-N-(2,2-dimethylpropyl)-3-hydroxy-pyridine-2-carboxamide] as the compound, how does the inhibition at 20 ppm read?
**A.** The inhibition at 20 ppm was at least 80%.

**Q.** How did the inhibition at 20 ppm turn out when `COc1cc(Nc2cc(F)cc(F)c2)nc(C(=O)NC2CCC2(C)C)c1` (centres unmarked) [Compound P-101, 6-(3,5-difluoroanilino)-N-(2,2-dimethylcyclobutyl)-4-methoxy-pyridine-2-carboxamide] was run?
**A.** The inhibition at 20 ppm was at least 80%.

**Q.** For `COc1ccc(Nc2ccc(C)cc2)nc1C(=O)NCC(C)(C)C` [Compound P-141, N-(2,2-dimethylpropyl)-3-methoxy-6-(4-methylanilino)pyridine-2-carboxamide], which inhibition at 20 ppm is on record?
**A.** The inhibition at 20 ppm was at least 80%.

**Q.** Which inhibition at 20 ppm does the source give for `COc1ccc(Nc2ccc(Cl)c(Cl)c2)nc1C(=O)NC(C)(C)C` [Compound P-149, N-tert-butyl-6-(3,4-dichloroanilino)-3-methoxy-pyridine-2-carboxamide] here?
**A.** The inhibition at 20 ppm was at least 80%.

**Q.** How did the inhibition at 20 ppm turn out when `COc1ccc(Nc2ccc(C(F)(F)F)c(F)c2)nc1C(=O)NC(C)(C)C` [Compound P-154, N-tert-butyl-6-[3-fluoro-4-(trifluoromethyl)anilino]-3-methoxy-pyridine-2-carboxamide] was run?
**A.** The inhibition at 20 ppm was at least 80%.

**Q.** For `COc1ccc(Nc2ccc(Cl)c(C)c2)nc1C(=O)NC(C)(C)C` [Compound P-158, N-tert-butyl-6-(4-chloro-3-methyl-anilino)-3-methoxy-pyridine-2-carboxamide], which inhibition at 20 ppm is on record?
**A.** Its inhibition at 20 ppm is at least 80%.

**Q.** `COc1ccc(Nc2ccc(C)cc2)nc1C(=O)NC(C)(C)C` [Compound P-161, N-tert-butyl-3-methoxy-6-(4-methylanilino)pyridine-2-carboxamide] was tested. Which inhibition at 20 ppm did it give?
**A.** The inhibition at 20 ppm was at least 80%.

**Q.** For `COc1ccc(Nc2cncc(C(F)(F)F)c2)nc1C(=O)NC(C)(C)C` [Compound P-163, N-tert-butyl-3-methoxy-6-[[5-(trifluoromethyl)-3-pyridyl]amino]pyridine-2-carboxamide], which inhibition at 20 ppm is on record?
**A.** The inhibition at 20 ppm was at least 80%.

**Q.** `COc1ccc(Nc2ccc3cnn(Cc4ccccc4)c3c2)nc1C(=O)NC(C)(C)C` [Compound P-165, 6-[(1-benzylindazol-6-yl)amino]-N-tert-butyl-3-methoxy-pyridine-2-carboxamide] was tested. Which inhibition at 20 ppm did it give?
**A.** Its inhibition at 20 ppm is at least 80%.
